Assay results published in US20100249145A1, “Inhibitors of VEGF Receptor and HGF Receptor Signaling” (Methylgene, Inc., priority 2005, published 2010).

Key:
MNNG-HOS = assay: In vivo solid tumor disease model, MNNG-HOS xenograft; design: species or system female athymic CD 1 mice; conditions: 14 days
MDA-MB-231 = assay: In vivo solid tumor disease model, MDA-MB-231 xenograft; design: species or system female athymic CD 1 mice; conditions: 75 mg/kg once daily PO, vehicle 0.5% CMC in acetate buffer (pH 4.0), 14 days
SW48 = assay: In vivo solid tumor disease model, SW48 xenograft; design: species or system female athymic CD 1 mice; conditions: 30 mg/kg once daily IP, vehicle DMSO, 14 days
SKLMS cells = assay: In vivo solid tumor disease model, SKLMS xenograft; design: species or system female athymic CD 1 mice; conditions: SKLMS40, 30 mg/kg once daily IP, vehicle DMSO
Excerpt: (§1) In Vivo Solid Tumor Disease Model
(§2) This test measures the capacity of compounds to inhibit solid tumor growth.
(§3) Tumor xenografts were established in the flank of female athymic CD 1 mice (Charles River Inc.), by subcutaneous injection of 1×10^6U87, A431 or SKLMS cells/mouse. Once established, tumors were then serially passaged s.c. in nude mice hosts. Tumor fragments from these host animals were used in subsequent compound evaluation experiments. For compound evaluation experiments female nude mice weighing approximately 20 g were implanted s.c. by surgical implantation with tumor fragments of ˜30 mg from donor tumors. When the tumors were approximately 100 mm^3 in size (˜7-10 days following implantation), the animals were randomized a separated into treatment and control groups. Each group contained 6-8 tumor-bearing mice, each of which was ear-tagged and followed individually throughout the experiment
(§4) Mice were weighed and tumor measurements are taken by calipers three times weekly, starting on Day 1. These tumor measurements were converted to tumor volume by the well-known formula (L+W/4)^34/3π. The experiment was terminated when the control tumors reached a size of approximately 1500 mm^3. In this model, the change in mean tumor volume for a compound treated group/the change in mean tumor volume of the control group (non-treated or vehicle treated)×100 (ΔT/ΔC) was subtracted from 100 to give the percent tumor growth inhibition (% TGI) for each test compound. In addition to tumor volumes, body weight of animals were monitored twice weekly for up to 3 weeks.
(§5) Regiment of administration was once daily.

U87 cells = assay: In vivo solid tumor disease model, U87 xenograft; design: species or system female athymic CD 1 mice; conditions: U87MG
Excerpt: as §1, §2, §3, §4, §5

A431 cells = assay: In vivo solid tumor disease model, A431 xenograft; design: species or system female athymic CD 1 mice; conditions: 30 mg/kg once daily IP, vehicle DMSO, 7 days
Excerpt: as §1, §2, §3, §4, §5

DU145 = assay: In vivo solid tumor disease model, DU145 xenograft; design: species or system female athymic CD 1 mice; conditions: 30 mg/kg once daily IP, vehicle DMSO, 10 days
VEGF receptor KDR = target: T1, VEGF receptor KDR (Homo sapiens, UniProt P35968); assay: In vitro receptor tyrosine kinase assay (DELFIA), VEGF receptor KDR; assay type: biochemical; conditions: Table 30; ATP 0.6 uM, enzyme 5 nM; read-out: VEGF(enz.) (IC50)
T1 construct: made in house; host or cells: Sf9 cells (Spodoptera frugiperda), recombinant baculovirus

MKN74 = assay: In vivo solid tumor disease model, MKN74 xenograft; design: species or system female athymic CD 1 mice; conditions: vehicle DMSO, 10 days
HCT116 = assay: In vivo solid tumor disease model, HCT116 xenograft; design: species or system female athymic CD 1 mice; conditions: HCT116; 30 mg/kg once daily IP; vehicle DMSO; 14 days
A549 = assay: In vivo solid tumor disease model, A549 xenograft; design: species or system female athymic CD 1 mice; conditions: 30 mg/kg once daily IP, vehicle DMSO, 14 days
MV4-11 = assay: In vivo solid tumor disease model, MV4-11 xenograft; design: species or system female athymic CD 1 mice; conditions: 20 mg/kg once daily p.o., 14 days
[1] = 30 mg/kg once daily IP, vehicle DMSO, 14 days

T1 sequence (P35968 806-1356): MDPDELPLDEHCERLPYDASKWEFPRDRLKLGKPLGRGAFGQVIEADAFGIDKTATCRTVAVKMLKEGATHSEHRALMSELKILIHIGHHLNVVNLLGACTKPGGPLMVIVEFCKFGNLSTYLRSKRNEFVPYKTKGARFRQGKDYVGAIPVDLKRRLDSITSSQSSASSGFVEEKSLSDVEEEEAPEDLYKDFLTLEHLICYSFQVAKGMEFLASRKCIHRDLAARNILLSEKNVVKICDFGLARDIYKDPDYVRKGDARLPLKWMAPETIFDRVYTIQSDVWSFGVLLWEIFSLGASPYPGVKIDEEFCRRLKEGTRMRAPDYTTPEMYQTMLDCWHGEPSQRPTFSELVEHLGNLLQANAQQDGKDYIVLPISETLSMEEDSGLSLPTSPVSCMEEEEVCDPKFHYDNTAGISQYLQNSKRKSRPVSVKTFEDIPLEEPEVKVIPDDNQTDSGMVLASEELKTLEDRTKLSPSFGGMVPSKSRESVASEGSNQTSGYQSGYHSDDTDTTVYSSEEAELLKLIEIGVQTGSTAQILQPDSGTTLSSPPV

## Cn1cnc(-c2cc3nccc(Oc4ccc(NC(=S)NC(=O)Cc5ccc(F)cc5)cc4F)c3s2)c1 [drawing 494]
MNNG-HOS; 75 mg/kg once daily p.o.
  Tumor Growth Inhibition (%): a* (greater than 100% tumor growth inhibition (i.e., tumor shrinkage))

## COc1ccccc1CC(=O)NC(=S)Nc1ccc(Oc2ccnc3cc(-c4cn(C)cn4)sc23)c(F)c1 [Example 138, N-(3-Fluoro-4-(2-(1-methyl-1H-imidazol-4-yl)thieno[3,2-b]pyridin-7-yloxy)phenylcarbamothioyl)-2-(2-methoxyphenyl)acetamide]
MDA-MB-231
  Tumor Growth Inhibition (%): b (% TGI in the range of 50-74)

## O=C(Cc1ccccc1)NC(=S)Nc1ccc(Oc2ccnc3cc(-c4ccccn4)sc23)c(F)c1 [Example 13, 1-(4-(2-(Pyridin-2-yl)thieno[3,2-b]pyridin-7-yloxy)-3-fluorophenyl)-3-(2-phenylacetyl)thiourea]
SW48
  Tumor Growth Inhibition (%): d (% TGI in the range of 0-24)
SKLMS cells; 10 days
  Tumor Growth Inhibition (%): b (% TGI in the range of 50-74)
U87 cells; [1]
  Tumor Growth Inhibition (%): a (% TGI in the range of 75-100)
A431 cells
  Tumor Growth Inhibition (%): b (% TGI in the range of 50-74)
DU145
  Tumor Growth Inhibition (%): d (% TGI in the range of 0-24)
VEGF receptor KDR
  IC50: < 50 nM

## Cn1cnc(-c2cc3nccc(Oc4ccc(NC(=S)NC(=O)Cc5ccc(F)cc5F)cc4F)c3s2)c1 [drawing 493]
MNNG-HOS; 40 mg/kg once daily p.o.
  Tumor Growth Inhibition (%): a (% TGI in the range of 75-100)

## CN(C)C(=O)c1cc2nccc(Oc3ccc(NC(=S)NC(=O)Cc4ccccc4)cc3F)c2s1 [Example 1, 1-(4-(2-(Dimethylcarbamoyl)thieno[3,2-b]pyridin-7-yloxy)-3-fluorophenyl)-3-(2-phenylacetyl)thiourea]
SW48
  Tumor Growth Inhibition (%): b (% TGI in the range of 50-74)
SKLMS cells; 14 days
  Tumor Growth Inhibition (%): b (% TGI in the range of 50-74)
MKN74; 15 mg/kg once daily IP
  Tumor Growth Inhibition (%): d (% TGI in the range of 0-24)
MKN74; 30 mg/kg once daily IP
  Tumor Growth Inhibition (%): c (% TGI in the range of 25-49)
HCT116
  Tumor Growth Inhibition (%): c (% TGI in the range of 25-49)
U87 cells; 15 mg/kg once daily IP, vehicle DMSO, 10 days
  Tumor Growth Inhibition (%): c (% TGI in the range of 25-49)
U87 cells; 30 mg/kg once daily IP, vehicle DMSO, 7 days
  Tumor Growth Inhibition (%): c (% TGI in the range of 25-49)
U87 cells; [1]
  Tumor Growth Inhibition (%): c (% TGI in the range of 25-49)
U87 cells; 30 mg/kg once daily IP, vehicle DMSO, 14 days (a* footnote class)
  Tumor Growth Inhibition (%): a* (greater than 100% tumor growth inhibition (i.e., tumor shrinkage))
U87 cells; 100 mg/kg once daily PO, vehicle 5% DMSO - 1% Tween-80 in water, 14 days
  Tumor Growth Inhibition (%): c (% TGI in the range of 25-49)
VEGF receptor KDR
  IC50: < 50 nM
A549
  Tumor Growth Inhibition (%): b (% TGI in the range of 50-74)

## C#Cc1ccccc1CC(=O)NC(=S)Nc1ccc(Oc2ccnc3cc(-c4cn(C)cn4)sc23)c(F)c1 [drawing 497]
MV4-11
  Tumor Growth Inhibition (%): a (% TGI in the range of 75-100)

## Cn1cnc(-c2cc3nccc(Oc4ccc(NC(=S)NC(=O)Cc5ccccc5F)cc4F)c3s2)c1 [Example 137, N-(3-Fluoro-4-(2-(1-methyl-1H-imidazol-4-yl)thieno[3,2-b]pyridin-7-yloxy)phenylcarbamothioyl)-2-(2-fluorophenyl)acetamide]
MDA-MB-231
  Tumor Growth Inhibition (%): b (% TGI in the range of 50-74)

## CCn1cnc(-c2cc3nccc(Oc4ccc(NC(=S)NC(=O)Cc5ccccc5C)cc4F)c3s2)c1 [drawing 495]
MNNG-HOS; 20 mg/kg once daily p.o.
  Tumor Growth Inhibition (%): c (% TGI in the range of 25-49)
